Laboratory results taken from the NIST ThermoML archive (doi:10.1021/je400205g).
Numbers after ± are expanded uncertainties.

Settings: Transpiration method

vapor or sublimation pressure (309.15 K, Liquid) | Structure (SMILES) | vapor or sublimation pressure (293.15 K, Liquid) | vapor or sublimation pressure (308.15 K, Liquid) | vapor or sublimation pressure (263.15 K, Liquid) | vapor or sublimation pressure (278.15 K, Liquid) | other results
 | O=C(O)C(F)(F)C(F)(F)C(F)(F)C(F)(F)C(F)(F)F [2,2,3,3,4,4,5,5,6,6,6-undecafluorohexanoic acid] | 0.044 ± 0.0022 kPa | 0.1656 ± 0.0068 kPa |  |  | vapor or sublimation pressure (263.15 K, Crystal): 0.00126 ± 0.001 kPa; vapor or sublimation pressure (270.15 K, Crystal): 0.00294 ± 0.001 kPa; vapor or sublimation pressure (278.15 K, Crystal): 0.00791 ± 0.0011 kPa; vapor or sublimation pressure (283.15 K, Crystal): 0.0134 ± 0.0012 kPa; vapor or sublimation pressure (285.15 K, Crystal): 0.01726 ± 0.0014 kPa; vapor or sublimation pressure (290.15 K, Crystal): 0.03551 ± 0.0018 kPa; vapor or sublimation pressure (300.15 K, Liquid): 0.08434 ± 0.0037 kPa
0.978 ± 0.039 kPa | C=CC(F)(F)C(F)(F)C(F)(F)C(F)(F)C(F)(F)C(F)(F)C(F)(F)C(F)(F)F |  |  |  |  | vapor or sublimation pressure (254.15 K, Liquid): 0.01269 ± 0.00078 kPa; vapor or sublimation pressure (272.45 K, Liquid): 0.06823 ± 0.003 kPa; vapor or sublimation pressure (290.75 K, Liquid): 0.2843 ± 0.012 kPa
0.217 ± 0.0086 kPa | OCCCC(F)(F)C(F)(F)C(F)(F)C(F)(F)F [4,4,5,5,6,6,7,7,7-nonafluoro-1-heptanol] | 0.05717 ± 0.0027 kPa |  |  |  | vapor or sublimation pressure (255.65 K, Liquid): 0.00087 ± 8e-05 kPa; vapor or sublimation pressure (273.15 K, Liquid): 0.00765 ± 0.00033 kPa; vapor or sublimation pressure (282.45 K, Liquid): 0.02121 ± 0.00096 kPa
 | CCOC(=O)C(F)(F)C(F)(F)C(F)(F)C(F)(F)C(F)(F)C(F)(F)C(F)(F)F [ethyl perfluorooctanoate] | 0.08988 ± 0.0038 kPa | 0.2649 ± 0.011 kPa | 0.00516 ± 0.0011 kPa | 0.02313 ± 0.0014 kPa | 
 | O=C(O)C(F)(F)OC(F)(F)C(F)(F)OC(F)(F)F | 0.09288 ± 0.0041 kPa | 0.3168 ± 0.013 kPa | 0.00451 ± 0.0011 kPa | 0.02238 ± 0.0014 kPa | 
